Data reported in patent publication US6525001B1, “Substituted pyrimidine and pyridine herbicides” (Mid-American Commercialization Corporation, priority 1997, dated 2003).

Legend:
Test in all cases: Test B pre-/postemergence
Format in all cases: in vivo
Parameters in all cases: key: 0 is no effect; 10 is complete control
[1] = tested on: purple nutsedge (Cyperus rotundus)
How it was run: (§1)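 Response scores run from 0, meaning no effect, to 10, meaning complete control, assigned by eye relative to controls twelve to sixteen days after spraying. Treatment was both preemergence on planted seed and postemergence on plants at the 1- to 4-leaf stage.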

soybean (Glycine max) = tested on: soybean (Glycine max)
How it was run: as §1

[2] = tested on: momingglory (Ipomoea hederacea)
How it was run: as §1

[3] = tested on: pigweed (Amaranthus retroflexus)
How it was run: as §1

[4] = tested on: giant foxtail (Setaria faberii)
How it was run: as §1

[5] = tested on: wheat (Triticum aestivum)
How it was run: as §1

[6] = tested on: sugar beet (Beta vulgaris)
How it was run: as §1

[7] = tested on: crabgrass (Digitaria sanguinalis)
How it was run: as §1

rape (Brassica napus) = tested on: rape (Brassica napus)
How it was run: as §1

[8] = tested on: cocklebur (Xanthium strumarium)
How it was run: as §1

[9] = tested on: velvetleaf (Abutilon theophrasti)
How it was run: as §1

wild oat (Avena fatua) = tested on: wild oat (Avena fatua)
How it was run: as §1

corn (Zea mays) = tested on: corn (Zea mays)
How it was run: as §1

[10] = tested on: bedstraw (Galium aparine)
How it was run: as §1

[11] = Rate 250 g/ha, Postemergence (so in the source)

## COc1cnc(-c2ccc(C(F)(F)F)cc2)nc1Cc1cccc(C(F)(F)F)c1 [Compound 23]
[1]; Rate 62 g/ha, Postemergence
  Plant response rating, Nutsedge: 0
[1]; Rate 125 g/ha, Postemergence
  Plant response rating, Nutsedge: 0
[1]; Rate 125 g/ha, Preemergence
  Nutsedge plant response rating: 0
Soybean (Glycine max); Rate 62 g/ha, Postemergence
  Plant response rating, Soybean: 8
Soybean (Glycine max); Rate 62 g/ha, Preemergence
  Soybean plant response rating: 1
Soybean (Glycine max); Rate 125 g/ha, Postemergence
  Plant response rating, Soybean: 8
Soybean (Glycine max); Rate 125 g/ha, Preemergence
  Soybean plant response rating: 1
Soybean (Glycine max); Rate 250 g/ha, Postemergence
  Plant response rating, Soybean: 8
Soybean (Glycine max); Rate 250 g/ha, Preemergence
  Plant response rating, Soybean: 1
[2]; Rate 62 g/ha, Postemergence
  Plant response rating, Morningglory: 6
[2]; Rate 62 g/ha, Preemergence
  Morningglory plant response rating: 4
[2]; Rate 125 g/ha, Postemergence
  Plant response rating, Morningglory: 9
[2]; Rate 125 g/ha, Preemergence
  Morningglory plant response rating: 8
[2]; Rate 250 g/ha, Postemergence
  Plant response rating, Morningglory: 9
[2]; Rate 250 g/ha, Preemergence
  Plant response rating, Morningglory: 10
[3]; Rate 62 g/ha, Postemergence
  Plant response rating, Redroot pigweed: 9
[3]; Rate 62 g/ha, Preemergence
  Redroot pigweed plant response rating: 9
[3]; Rate 125 g/ha, Postemergence
  Plant response rating, Redroot pigweed: 10
[3]; Rate 125 g/ha, Preemergence
  Redroot pigweed plant response rating: 9
[3]; Rate 250 g/ha, Postemergence
  Plant response rating, Redroot pigweed: 10
[3]; Rate 250 g/ha, Preemergence
  Plant response rating, Redroot pigweed: 10
[4]; Rate 62 g/ha, Postemergence
  Plant response rating, Giant foxtail: 2
[4]; Rate 62 g/ha, Preemergence
  Giant foxtail plant response rating: 10
[4]; Rate 125 g/ha, Postemergence
  Plant response rating, Giant foxtail: 5
[4]; Rate 125 g/ha, Preemergence
  Giant foxtail plant response rating: 10
[4]; Rate 250 g/ha, Postemergence
  Plant response rating, Giant foxtail: 9
[4]; Rate 250 g/ha, Preemergence
  Plant response rating, Giant foxtail: 10
[5]; Rate 62 g/ha, Postemergence
  Plant response rating, Wheat: 3
[5]; Rate 62 g/ha, Preemergence
  Wheat plant response rating: 2
[5]; Rate 125 g/ha, Postemergence
  Plant response rating, Wheat: 4
[5]; Rate 125 g/ha, Preemergence
  Wheat plant response rating: 3
[5]; Rate 250 g/ha, Postemergence
  Plant response rating, Wheat: 5
[5]; Rate 250 g/ha, Preemergence
  Plant response rating, Wheat: 6
[6]; Rate 62 g/ha, Postemergence
  Plant response rating, Sugarbeets: 10
[6]; Rate 62 g/ha, Preemergence
  Sugarbeets plant response rating: 8
[6]; Rate 125 g/ha, Postemergence
  Plant response rating, Sugarbeets: 10
[6]; Rate 125 g/ha, Preemergence
  Sugarbeets plant response rating: 8
[6]; Rate 250 g/ha, Postemergence
  Plant response rating, Sugarbeets: 10
[6]; Rate 250 g/ha, Preemergence
  Plant response rating, Sugarbeets: 10
[7]; Rate 62 g/ha, Postemergence
  Plant response rating, Crabgrass: 7
[7]; Rate 62 g/ha, Preemergence
  Crabgrass plant response rating: 9
[7]; Rate 125 g/ha, Postemergence
  Plant response rating, Crabgrass: 9
[7]; Rate 125 g/ha, Preemergence
  Crabgrass plant response rating: 10
[7]; Rate 250 g/ha, Postemergence
  Plant response rating, Crabgrass: 9
[7]; Rate 250 g/ha, Preemergence
  Plant response rating, Crabgrass: 10
Rape (Brassica napus); Rate 62 g/ha, Postemergence
  Plant response rating, Rape: 10
Rape (Brassica napus); Rate 62 g/ha, Preemergence
  Rape plant response rating: 1
Rape (Brassica napus); Rate 125 g/ha, Postemergence
  Plant response rating, Rape: 10
Rape (Brassica napus); Rate 125 g/ha, Preemergence
  Rape plant response rating: 3
Rape (Brassica napus); Rate 250 g/ha, Postemergence
  Plant response rating, Rape: 10
Rape (Brassica napus); Rate 250 g/ha, Preemergence
  Plant response rating, Rape: 7
[8]; Rate 62 g/ha, Postemergence
  Plant response rating, Cocklebur: 9
[8]; Rate 62 g/ha, Preemergence
  Cocklebur plant response rating: 1
[8]; Rate 125 g/ha, Postemergence
  Plant response rating, Cocklebur: 10
[8]; Rate 125 g/ha, Preemergence
  Cocklebur plant response rating: 1
[8]; Rate 250 g/ha, Postemergence
  Plant response rating, Cocklebur: 10
[8]; Rate 250 g/ha, Preemergence
  Plant response rating, Cocklebur: 3
[9]; Rate 62 g/ha, Postemergence
  Plant response rating, Velvetleaf: 9
[9]; Rate 62 g/ha, Preemergence
  Velvetleaf plant response rating: 1
[9]; Rate 125 g/ha, Postemergence
  Plant response rating, Velvetleaf: 9
[9]; Rate 125 g/ha, Preemergence
  Velvetleaf plant response rating: 3
[9]; Rate 250 g/ha, Postemergence
  Plant response rating, Velvetleaf: 9
[9]; Rate 250 g/ha, Preemergence
  Plant response rating, Velvetleaf: 10
Wild oat (Avena fatua); Rate 62 g/ha, Postemergence
  Plant response rating, Wild oats: 5
Wild oat (Avena fatua); Rate 62 g/ha, Preemergence
  Wild oats plant response rating: 7
Wild oat (Avena fatua); Rate 125 g/ha, Postemergence
  Plant response rating, Wild oats: 6
Wild oat (Avena fatua); Rate 125 g/ha, Preemergence
  Wild oats plant response rating: 8
Wild oat (Avena fatua); Rate 250 g/ha, Postemergence
  Plant response rating, Wild oats: 9
Wild oat (Avena fatua); Rate 250 g/ha, Preemergence
  Plant response rating, Wild oats: 9
Corn (Zea mays); Rate 62 g/ha, Postemergence
  Plant response rating, Corn: 2
Corn (Zea mays); Rate 62 g/ha, Preemergence
  Corn plant response rating: 0
Corn (Zea mays); Rate 125 g/ha, Postemergence
  Plant response rating, Corn: 3
Corn (Zea mays); Rate 125 g/ha, Preemergence
  Corn plant response rating: 1
Corn (Zea mays); Rate 250 g/ha, Postemergence
  Plant response rating, Corn: 3
Corn (Zea mays); Rate 250 g/ha, Preemergence
  Plant response rating, Corn: 1
[10]; Rate 62 g/ha, Postemergence
  Plant response rating, Bedstraw: 9
[10]; Rate 125 g/ha, Postemergence
  Plant response rating, Bedstraw: 9
[10]; Rate 125 g/ha, Preemergence
  Bedstraw plant response rating: 8
[10]; Rate 250 g/ha, Postemergence
  Plant response rating, Bedstraw: 9
[10]; Rate 250 g/ha, Preemergence
  Plant response rating, Bedstraw: 9

## Cc1cnc(-n2ccc(C(F)(F)F)n2)nc1Cc1cccc(OC(F)(F)F)c1 [Compound 42]
[1]; Rate 62 g/ha, Postemergence
  Plant response rating, Nutsedge: 0
[1]; Rate 62 g/ha, Preemergence
  Nutsedge plant response rating: 0
[1]; Rate 125 g/ha, Postemergence
  Nutsedge plant response rating: 0
[1]; Rate 250 g/ha, Postemergence
  Plant response rating, Nutsedge: 2
[1]; [11]
  Plant response rating, Nutsedge: 0
Soybean (Glycine max); Rate 62 g/ha, Postemergence
  Plant response rating, Soybean: 9
Soybean (Glycine max); Rate 62 g/ha, Preemergence
  Soybean plant response rating: 2
Soybean (Glycine max); Rate 125 g/ha, Postemergence
  Soybean plant response rating: 9
Soybean (Glycine max); Rate 125 g/ha, Preemergence
  Plant response rating, Soybean: 4
Soybean (Glycine max); Rate 250 g/ha, Postemergence
  Plant response rating, Soybean: 9
Soybean (Glycine max); [11]
  Plant response rating, Soybean: 4
[2]; Rate 62 g/ha, Postemergence
  Plant response rating, Morningglory: 8
[2]; Rate 62 g/ha, Preemergence
  Morningglory plant response rating: 9
[2]; Rate 125 g/ha, Postemergence
  Morningglory plant response rating: 9
[2]; Rate 125 g/ha, Preemergence
  Morningglory plant response rating: 10
[2]; Rate 250 g/ha, Postemergence
  Plant response rating, Morningglory: 9
[2]; [11]
  Plant response rating, Morningglory: 10
[3]; Rate 62 g/ha, Postemergence
  Plant response rating, Redroot pigweed: 9
[3]; Rate 62 g/ha, Preemergence
  Redroot pigweed plant response rating: 9
[3]; Rate 125 g/ha, Postemergence
  Redroot pigweed plant response rating: 9
[3]; Rate 125 g/ha, Preemergence
  Redroot pigweed plant response rating: 10
[3]; Rate 250 g/ha, Postemergence
  Plant response rating, Redroot pigweed: 9
[3]; [11]
  Plant response rating, Redroot pigweed: 10
[4]; Rate 62 g/ha, Postemergence
  Plant response rating, Giant foxtail: 6
[4]; Rate 62 g/ha, Preemergence
  Giant foxtail plant response rating: 10
[4]; Rate 125 g/ha, Postemergence
  Giant foxtail plant response rating: 7
[4]; Rate 125 g/ha, Preemergence
  Giant foxtail plant response rating: 10
[4]; Rate 250 g/ha, Postemergence
  Plant response rating, Giant foxtail: 9
[4]; [11]
  Plant response rating, Giant foxtail: 10
[5]; Rate 62 g/ha, Postemergence
  Wheat plant response rating: 2
[5]; Rate 62 g/ha, Preemergence
  Wheat plant response rating: 1
[5]; Rate 125 g/ha, Postemergence
  Wheat plant response rating: 3
[5]; Rate 125 g/ha, Preemergence
  Plant response rating, Wheat: 2
[5]; Rate 250 g/ha, Postemergence
  Plant response rating, Wheat: 4
[5]; [11]
  Plant response rating, Wheat: 4
[6]; Rate 62 g/ha, Postemergence
  Plant response rating, Sugarbeets: 10
[6]; Rate 62 g/ha, Preemergence
  Sugarbeets plant response rating: 10
[6]; Rate 125 g/ha, Postemergence
  Sugarbeets plant response rating: 10
[6]; Rate 125 g/ha, Preemergence
  Plant response rating, Sugarbeets: 10
[6]; Rate 250 g/ha, Postemergence
  Plant response rating, Sugarbeets: 10
[6]; [11]
  Plant response rating, Sugarbeets: 10
[7]; Rate 62 g/ha, Postemergence
  Plant response rating, Crabgrass: 4
[7]; Rate 62 g/ha, Preemergence
  Crabgrass plant response rating: 9
[7]; Rate 125 g/ha, Postemergence
  Plant response rating, Crabgrass: 7
[7]; Rate 125 g/ha, Preemergence
  Crabgrass plant response rating: 10
[7]; Rate 250 g/ha, Postemergence
  Plant response rating, Crabgrass: 8
[7]; [11]
  Plant response rating, Crabgrass: 10
Rape (Brassica napus); Rate 62 g/ha, Postemergence
  Plant response rating, Rape: 10
Rape (Brassica napus); Rate 62 g/ha, Preemergence
  Rape plant response rating: 7
Rape (Brassica napus); Rate 125 g/ha, Postemergence
  Rape plant response rating: 10
Rape (Brassica napus); Rate 125 g/ha, Preemergence
  Rape plant response rating: 10
Rape (Brassica napus); Rate 250 g/ha, Postemergence
  Plant response rating, Rape: 10
Rape (Brassica napus); [11]
  Plant response rating, Rape: 10
[8]; Rate 62 g/ha, Postemergence
  Plant response rating, Cocklebur: 9
[8]; Rate 62 g/ha, Preemergence
  Cocklebur plant response rating: 1
[8]; Rate 125 g/ha, Postemergence
  Plant response rating, Cocklebur: 9
[8]; Rate 125 g/ha, Preemergence
  Cocklebur plant response rating: 3
[8]; Rate 250 g/ha, Postemergence
  Plant response rating, Cocklebur: 9
[8]; [11]
  Plant response rating, Cocklebur: 8
[9]; Rate 62 g/ha, Postemergence
  Plant response rating, Velvetleaf: 8
[9]; Rate 62 g/ha, Preemergence
  Velvetleaf plant response rating: 10
[9]; Rate 125 g/ha, Postemergence
  Velvetleaf plant response rating: 9
[9]; Rate 125 g/ha, Preemergence
  Plant response rating, Velvetleaf: 7
[9]; Rate 250 g/ha, Postemergence
  Plant response rating, Velvetleaf: 9
[9]; [11]
  Plant response rating, Velvetleaf: 10
Wild oat (Avena fatua); Rate 62 g/ha, Postemergence
  Wild oats plant response rating: 6
Wild oat (Avena fatua); Rate 62 g/ha, Preemergence
  Wild oats plant response rating: 4
Wild oat (Avena fatua); Rate 125 g/ha, Postemergence
  Wild oats plant response rating: 6
Wild oat (Avena fatua); Rate 125 g/ha, Preemergence
  Plant response rating, Wild oats: 8
Wild oat (Avena fatua); Rate 250 g/ha, Postemergence
  Plant response rating, Wild oats: 6
Wild oat (Avena fatua); [11]
  Plant response rating, Wild oats: 9
Corn (Zea mays); Rate 62 g/ha, Postemergence
  Plant response rating, Corn: 3
Corn (Zea mays); Rate 62 g/ha, Preemergence
  Corn plant response rating: 0
Corn (Zea mays); Rate 125 g/ha, Postemergence
  Plant response rating, Corn: 3
Corn (Zea mays); Rate 125 g/ha, Preemergence
  Corn plant response rating: 1
Corn (Zea mays); Rate 250 g/ha, Postemergence
  Plant response rating, Corn: 8
Corn (Zea mays); [11]
  Plant response rating, Corn: 2
[10]; Rate 62 g/ha, Postemergence
  Plant response rating, Bedstraw: 9
[10]; Rate 62 g/ha, Preemergence
  Bedstraw plant response rating: 7
[10]; Rate 125 g/ha, Postemergence
  Plant response rating, Bedstraw: 9
[10]; Rate 125 g/ha, Preemergence
  Bedstraw plant response rating: 8
[10]; [11]
  Plant response rating, Bedstraw: 8
